Test results from US20230150951A1, “2,5- OR 2,6-DISUBSTITUTED HYDROQUINONE DERIVATIVES WITH AT LEAST ONE CARBOXY, SULFO OR AMIDO GROUP USEFUL AS MEDICAMENTS” (OM PHARMA SA, priority 2020, published 2023).
Values belong to the compound of their own block, whether it stands above or below them.

Columns and labels:
[1] = Prodrug stability in mouse plasma; assay type: in vitro ADME; conditions: for half-life: read-out: T1/2 (mouse plasma); for remaining after 1 h (mouse plasma): ester cleaved
[2] = Prodrug stability in human plasma; assay type: in vitro ADME; conditions: for half-life: read-out: T1/2 (human plasma)
[3] = tested on: human retinal endothelial cells (HRECs); assay: Inner blood retinal barrier: HREC monolayer permeability to FITC-dextran; assay type: cell-based
Description: (§1) The mechanisms of actions involved in the anti-permeability effect of the tested treatments were explored by assessing permeability to fluorescent dextran and proinflammatory cytokines production using their mRNA expression levels by RT-PCR.
Inner Blood Retinal Barrier conditions: primary human retinal endothelial cells (HRECs) were obtained from a vial of cryopreserved cells purchased from Innoprot (Vizcay, Spain). These cells were isolated from human retinal tissue of cadaveric eyes digested with 0.1 mg/mL collagenase type I at 37° C. for 1 hour. Then, endothelial cells were finally selected with CD31 antibody-coated magnetic beads (DynaBeads; Dynal, Oslo, Norway). HRECs were thawed in the laboratory and cultured in endothelial basal medium (EBM) containing, 5.5 mM D-glucose, 5% FBS (Fetal Bovine Serum), 100 U/mL penicillin, 100 μg/mL streptomycin, and ECG (Endothelial Cell Growth Supplement) supplement (Innoprot, Vizcay, Spain). Human fibronectin (MerckMillipore, Madrid, Spain) at 5 μg/mL was used for cell attachment. Cells at passages 2-3 will be used for the experiments. For experimentation, HRECs were grown to confluence and then cell culture media was changed to medium supplemented with 1% FBS for 24 h and then exposed to different treatments.
Conditions treatments: The same conditions specified for the experiment in ARPE-19 cells were used.
Measurement of HREC permeability: Permeability in HREC monolayers were obtained on permeable supports at 12×10^5 cells/well (24 wells, PCF filters, Merk Millipore). Inserts were incubated for 48 hours at 37° C. in 5% CO2-air to form the monolayer. At the end, medium was serum depleted 24 h before to proceed with the treatments. The lower chamber was filled with 600 μL of complete EBM medium and the upper chamber with 100 μL of cell suspension in serum depleted (1%).
To detect changes in the permeability, 100 μg/ml of fluorescent FITC-DEXTRAN (Sigma, Madrid, Spain), was added to the upper side of the insert. Aliquots of 200 μL from the basal compartment was read in a SpectraMax Gemini (Molecular Devices, Sunnyvale, Calif.) at a wavelength of excitation/emission 485/528 nm every 30 min. Finally, the concentration of dextran was determined by extrapolation of the fluorescence reads in a standard curve. Each condition was tested in triplicate.

ARPE-19 cells [4] = assay: ROS and cytokine/VEGF mRNA production by ARPE-19 monolayer cells in non-diabetic and diabetic milieu; assay type: cell-based, human; conditions: ARPE19 monolayer, 0.2 mg/mL; for ROS: ROS % to 25 mM D-Glucose; for IL-1β R.Q. mRNA / IL-6 R.Q. mRNA / IL-18 R.Q. mRNA / TNFα R.Q. mRNA / VEGF R.Q. mRNA: relative change vs 25 mM D-Gluc
Protocol: (§2) Outer Blood Retinal Barrier conditions: human retinal pigment epithelial cells (RPE) cultures ARPE-19, a spontaneously immortalised human RPE cell line were obtained from American Type Culture Collection (Manassas, Va., USA). ARPE-19 cells and they were cultured in euglycaemic conditions (D-glucose (D-Glc), 5.5 mmol/L) and hyperglycaemic conditions (D-glucose, 25 mmol/L) for 18 days at 37° C. under 5% (vol./vol.) CO2 in medium (DMEM/F12) supplemented with 10% (vol./vol.) FBS (Hyclone; Thermo Fisher Scientific, UT, USA) and 1% (vol./vol.) penicillin/streptomycin (Hyclone; Thermo Fisher Scientific). ARPE-19 cells from passage 20 were used and the medium changed every 3-4 days. For permeability studies, ARPE-19 cells were seeded at 400,000 cells/ml (80,000 RPE cells/well) in 0.33 cm^2 HTS-Transwells (Costar; Corning, N.Y., USA). For real-time PCR, western blot analysis and immunofluorescence cells are seeded at 20,000 cells/ml.
(§3) Experimental conditions and treatments: apart from the euglycemic condition, eighteen different conditions were tested in cells cultured under 25 mmol/L D-glucose:
• Proinflammatory cytokines were evaluated in ARPE-19 cells by RT-PCR and mRNA for IL-6, TNF-α, IL-1β, IL-18, VEGF, IL-10, FGF were measured using the double delta CT method 2-ΔΔCT with Cts values for the gene of interest and the endogenous human B-actin to obtain ΔCT; mRNA values were expressed as relative change with respect to the condition 25 mM D-Gluc. (ref: Livak K J, Analysis of Relative Gene Expression Data Using Real-Time Quantitative PCR and the 2-ΔΔCT Method, Methods, 2001, 25(4), 402-408, doi 10.1006/meth.2001.1262) • ROS production was evaluated using Cell Biolabs' OxiSelect™ Intracellular ROS Assay (Green Fluorescence) (Bionova, Madrid, Spain). The assay employs the cell-permeable fluorogenic probe 2′, 7′-Dichlorodihydrofluorescin diacetate (DCFH-DA), oxidized to highly fluorescent 2′, 7′-Dichlorodihydrofluorescein (DCF) by cellular ROS. • Endothelin-1, PDGF and VCAM-1 expression was analyzed in HREC monolayers by immunohistochemical analysis and by RT-PCR. • TJ expression (ZO) is analyzed in ARPE-19 and HREC monolayers by immunohistochemical analysis.

ARPE-19 cells [5] = assay: Outer blood retinal barrier: ARPE-19 monolayer permeability to FITC-dextran; assay type: cell-based, human
Description: as §1, §2, §3
Condition 2) Cells are treated with diabetic milieu 25 mM D-Glucose+vehicle (days 15, 16 and 17 at one application/day) in order to evaluate their effect in preventing the cell damage provoked by the diabetic milieu.
Condition 9) Cells were treated with 25 mM D-Glucose and bevacizumab (0.2 mg/ml) for 72 h (days 15, 16 and 17 at one application/day) to evaluate their potential cytotoxic effects.
Condition 10)=Diabetic milieu; cells were treated with 25 mM D-Glucose+[…] (10 ng/ml)+TNF-α (25 ng/ml)+VEGF (25 ng/ml), for 48 h (days 16 and 17 at one application/day) in order to provoke the disruption of the monolayer.
Condition 17) Cells are treated with diabetic milieu (25 mM D-Glucose+IL-1β (10 ng/ml)+TNF-α (25 ng/ml)+VEGF (25 ng/ml))+bevacizumab (0.2 mg/mL) (days 15, 16 and 17 at one application/day) in order to evaluate their effect in preventing the cell damage provoked by the diabetic milieu.
Measurement of ARPE-19 permeability: The permeability of RPE cells was determined at 18 days by measuring the apical-to basolateral movements of FITC-dextran (40 kDa) (Sigma, St Louis, […]., USA) following a procedure previously reported by Villarroel et al. Exp Eye Res, 2009, 89, 913-920.

[6] = diabetic milieu (25 mM D-Gluc + VEGF, TNF-α, IL-1β)

Compound: O=C(O)c1cc(O)cc(CS(=O)(=O)Cc2cc(O)cc(C(=O)OCCN3CCOCC3)c2O)c1O [IVc-059a-mpe1, 2,5-Dihydroxy-3-[[2,5-hydroxy-3-(2-morpholinoethoxycarbonyl)phenyl]methylsulfonyl-methyl]benzoic acid]
Stability in mouse plasma (in words) [1]: stable up to 60 min

Compound: O=C(OCCN1CCOCC1)c1cc(O)cc(CS(=O)(=O)Cc2cc(O)cc(C(=O)OCCN3CCOCC3)c2O)c1O [IVc-059a-mpe2, 2,5-Dihydroxy-3-[[2,5-hydroxy-3-(2-morpholinoethoxycarbonyl)phenyl]methylsulfonyl-methyl]benzoic acid 2-morpholinoethyl ester]
Stability in mouse plasma (in words) [1]: stable up to 60 min
T1/2 (human plasma) [2]: > 180 min

Stability in mouse plasma (in words) [1]: Hydrolyzed Rapidly
Compound: CC(OC(=O)c1cc(O)cc(CS(=O)(=O)Cc2cc(O)cc(C(=O)O)c2O)c1O)OC(=O)C(C)(C)C (stereo not shown) [IVc-059a-pive1, 3-[[3-[1-(2,2-Dimethylpropanoyloxy)ethoxycarbonyl]-2,5-dihydroxy-phenyl]methylsulfonyl-methyl]-2,5-dihydroxy-benzoic acid]

Stability in mouse plasma (in words) [1]: hydrolyzed rapidly
Stability in human plasma (in words) [2]: hydrolyzed rapidly
Compound: CC(OC(=O)c1cc(O)cc(CS(=O)(=O)Cc2cc(O)cc(C(=O)OC(C)OC(=O)C(C)(C)C)c2O)c1O)OC(=O)C(C)(C)C (stereo not shown) [IVc-059a-pive2, 3-[[3-[1-(2,2-Dimethylpropanoyloxy)ethoxycarbonyl]-2,5-dihydroxy-phenyl]methyl-sulfonyl-methyl]-2,5-dihydroxy-benzoic acid 1-(2,2-dimethylpropanoyloxy)ethyl ester]

Stability in mouse plasma (in words) [1]: hydrolyzed rapidly
half-life [1]: 6.7 min
half-life [2]: > 180 min
Compound: CC(C)(C)C(=O)OCOC(=O)c1cc(O)cc(CS(=O)(=O)Cc2cc(O)cc(C(=O)O)c2O)c1O [IVc-059a-pivm1, 2,5-Dihydroxy-3-[[2,5-dihydroxy-3-(2,2-dimethylpropanoyloxymethoxycarbonyl)phenyl]methyl-sulfonylmethyl]benzoic acid]

Stability in mouse plasma (in words) [1]: hydrolyzed rapidly
half-life [1]: 14.1 min
half-life [2]: > 180 min
Compound: CC(C)(C)C(=O)OCOC(=O)c1cc(O)cc(CS(=O)(=O)Cc2cc(O)cc(C(=O)OCOC(=O)C(C)(C)C)c2O)c1O [IVc-059a-pivm2, 2,2-Dimethylpropanoyloxymethyl 2,5-dihydroxy-3-[[2,5-dihydroxy-3-(2,2-dimethyl-propanoyloxymethoxycarbonyl)phenyl]methylsulfonylmethyl]benzoate]

remaining after 1 h (mouse plasma) [1]: 49%
half-life [1]: 44.6 min
half-life [2]: > 180 min
Compound: CC(OC(=O)c1cc(NC(=O)c2cc(O)c(C(=O)Nc3ccc(O)c(C(=O)O)c3)cc2O)ccc1O)OC(=O)C(C)(C)C (stereo not shown) [Ic-007a-pive1, 5-[[4-[[3-[1-(2,2-dimethylpropanoyloxy)ethoxycarbonyl]-4-hydroxy-phenyl]carbamoyl]-2,5-dihydroxy-benzoyl]amino]-2-hydroxy-benzoic acid]

remaining after 1 h (mouse plasma) [1]: 65%
half-life [1]: 62.2 min
half-life [2]: > 180 min
Compound: CC(OC(=O)c1cc(NC(=O)c2cc(O)c(C(=O)Nc3ccc(O)c(C(=O)OC(C)OC(=O)C(C)(C)C)c3)cc2O)ccc1O)OC(=O)C(C)(C)C (stereo not shown) [Ic-007a-pive2, 1-(2,2-dimethylpropanoyloxy)ethyl 5-[[4-[[3-[1-(2,2-dimethylpropanoyloxy)ethoxycarbonyl]-4-hydroxy-phenyl]carbamoyl]-2,5-dihydroxy-benzoyl]amino]-2-hydroxybenzoate]

Compound: bevacizumab: comparator in ARPE-19 and HREC permeability experiments [reference compound]
% permeability HREC ([3]; No 9: 25 mM D-Gluc + 0.2 mg/mL): 127.1 ± 26.2%
% permeability HREC ([3]; No 17: 25 mM D-Gluc + 0.2 mg/mL + VEGF, TNF-α, IL-β (diabetic milieu)): 129.0 ± 35.3%
ROS (ARPE-19 cells [4]; 25 mM D-Gluc): 110 ± 54%
IL-1β R.Q. mRNA (ARPE-19 cells [4]; 25 mM D-Gluc): 1.46 ± 0.72 R.Q.
IL-6 R.Q. mRNA (ARPE-19 cells [4]; 25 mM D-Gluc): 0.64 ± 0.34 R.Q.
IL-18 R.Q. mRNA (ARPE-19 cells [4]; 25 mM D-Gluc): 0.09 ± 0.01 R.Q.
TNFα R.Q. mRNA (ARPE-19 cells [4]; 25 mM D-Gluc): 0.46 ± 0.63 R.Q.
VEGF R.Q. mRNA (ARPE-19 cells [4]; 25 mM D-Gluc): 1.68 ± 0.83 R.Q.
ROS (ARPE-19 cells [4]; [6]): 111 ± 50%
IL-1β R.Q. mRNA (ARPE-19 cells [4]; [6]): 31.22 ± 12.65 R.Q.
IL-6 R.Q. mRNA (ARPE-19 cells [4]; [6]): 32.35 ± 13.48 R.Q.
IL-18 R.Q. mRNA (ARPE-19 cells [4]; [6]): 0.53 ± 0.04 R.Q.
TNFα R.Q. mRNA (ARPE-19 cells [4]; [6]): 1.37 ± 0.27 R.Q.
VEGF R.Q. mRNA (ARPE-19 cells [4]; [6]): 3.88 ± 0.68 R.Q.
% permeability ARPE19 (ARPE-19 cells [5]; No 9: 25 mM D-Gluc + 0.2 mg/mL): 109.5 ± 22.9%
% permeability ARPE19 (ARPE-19 cells [5]; No 17: 25 mM D-Gluc + 0.2 mg/mL + VEGF, TNF-α, (diabetic milieu)): 120.7 ± 30.1%
